The text below walks through data of PMC7869707 (European Journal of Medicinal Chemistry, 2021).

Usually Kd stands for the free concentration of one partner at which half of the binding sites on the other are occupied at equilibrium, for simple one-to-one binding.

Each structure is given as a SMILES string.

Data set [1] relates to 293T-ACE2 cells. Description: Cytotoxicity assay. Format: cell-based. The note with it: MTT.
In data set [2] the test system is SARS-CoV-2 PsV. Description: microbe, parasite or virus in culture. Format: cell-based. To be noted: for IC50: Severe acute respiratory syndrome coronavirus 2, 293T/ACE2, 48 h, read-out: IC50 (50% inhibitory concentration) against infection of 293T-ACE2 cells by SARS-CoV-2 PsV.
The subject of data set [3] is VSV-G PsV. Format: cell-based.
Data set [4] concerns the target SARS-CoV-2 S-trimer (Severe acute respiratory syndrome coronavirus 2, UniProt P0DTC2). The experiment in a line: biochemical. Format: binding.
For data set [5], the target named is SARS-CoV-2 S2 subunit (Severe acute respiratory syndrome coronavirus 2, UniProt P0DTC2). Format: binding.
For data set [6], the system named is Vero-E6 cells. The experiment in a line: Cytotoxicity assay. To be noted: MTT. Format: cell-based.
Data set [7] concerns the target SARS-CoV-2 S binding to the ACE2 receptor (Severe acute respiratory syndrome coronavirus 2, UniProt P0DTC2).
The subject of data set [8] is SARS-CoV-2 S protein mediated membrane fusion of Vero-E6 cells. Format: cell-based.

On to `C[C@@H]1O[C@@H](O[C@H]2[C@H](O[C@H]3CC[C@]4(C)[C@H]5CC=C6[C@@H]7CC(C)(C)CC[C@]7(C(=O)OCc7ccccc7)CC[C@@]6(C)[C@]5(C)CC[C@H]4C3(C)C)O[C@H](CO)[C@@H](O[C@@H]3O[C@@H](C)[C@H](O)[C@@H](O)[C@H]3O)[C@@H]2O)[C@H](O)[C@H](O)[C@H]1O` [Compound 2, 3β-O-[2,4-di-O-(α-L-rhamnopyranosyl)-β-D-glucopyranosyl]-olean-12-en-28-oic acid benzyl ester], for which, in data set [1], the “Cytotoxicity against 293T-ACE2 cells” value is given as “moderate cytotoxicity”.
Turning to `COc1ccccc1NC(=O)[C@]12CCC(C)(C)C[C@H]1C1=CC[C@@H]3[C@@]4(C)CC[C@H](O[C@@H]5O[C@H](CO)[C@@H](O[C@@H]6O[C@@H](C)[C@H](O)[C@@H](O)[C@H]6O)[C@H](O)[C@H]5O[C@@H]5O[C@@H](C)[C@H](O)[C@@H](O)[C@H]5O)C(C)(C)[C@@H]4CC[C@@]3(C)[C@]1(C)CC2` [Compound 12b, N-{3β-O-[2,4-di-O-(a-L-rhamnopyranosyl)-β-D-glucopyranosyl]-olean-12-en-28-oyl}-2-methoxyaniline], the IC50 in data set [2] was less than 6 µM. Besides, the “Inhibition of VSV-G pseudoviral transduction” value in data set [3] is reported as “no effect”.
Regarding `C[C@@H]1O[C@@H](O[C@H]2[C@H](O[C@H]3CC[C@]4(C)[C@H]5CC=C6[C@@H]7CC(C)(C)CC[C@]7(C(=O)NCc7ccccc7)CC[C@@]6(C)[C@]5(C)CC[C@H]4C3(C)C)O[C@H](CO)[C@@H](O[C@@H]3O[C@@H](C)[C@H](O)[C@@H](O)[C@H]3O)[C@@H]2O)[C@H](O)[C@H](O)[C@H]1O` [Compound 12f, N-{3β-O-[2,4-di-O-(a-L-rhamnopyranosyl)-β-D-glucopyranosyl]-olean-12-en-28-oyl}-benzylamine], the “Cytotoxicity against 293T-ACE2 cells” value in data set [1] is listed as “negligible cytotoxicity”. For the same compound, the “Inhibition of VSV-G pseudoviral transduction” value in data set [3] is reported as “no inhibition”. Also, the Kd in data set [4] stood at 0.94 µM. In addition, the “Fold higher affinity with S2 subunit in relation to S1 subunit” value in data set [5] is reported as “more than 1000 fold”. The “Cytotoxicity against Vero-E6 cells” value in data set [6] was “negligible cytotoxicity”. Also, in data set [7], the “Effect on SARS-CoV-2 S binding to the ACE2 receptor” value is given as “no effect”. The “Inhibition of membrane fusion mediated by SARS-CoV-2 S protein” value in data set [8] is recorded as “remarkably inhibit”.
With `C[C@@H]1O[C@@H](O[C@H]2[C@H](O[C@H]3CC[C@]4(C)[C@H]5CC=C6[C@@H]7CC(C)(C)CC[C@]7(C(=O)NCc7ccccn7)CC[C@@]6(C)[C@]5(C)CC[C@H]4C3(C)C)O[C@H](CO)[C@@H](O[C@@H]3O[C@@H](C)[C@H](O)[C@@H](O)[C@H]3O)[C@@H]2O)[C@H](O)[C@H](O)[C@H]1O` [Compound 12g, N-{3β-O-[2,4-di-O-(a-L-rhamnopyranosyl)-β-D-glucopyranosyl]-olean-12-en-28-oyl}-2-pyridinemethanamine], the “Potency against SARS-CoV-2 PsV” value in data set [2] is given as “loss of potency”.
Same read-out and setting: the result for `C[C@@H]1O[C@@H](O[C@H]2[C@H](O[C@H]3CC[C@]4(C)[C@H]5CC=C6[C@@H]7CC(C)(C)CC[C@]7(C(=O)NCc7ccco7)CC[C@@]6(C)[C@]5(C)CC[C@H]4C3(C)C)O[C@H](CO)[C@@H](O[C@@H]3O[C@@H](C)[C@H](O)[C@@H](O)[C@H]3O)[C@@H]2O)[C@H](O)[C@H](O)[C@H]1O` [Compound 12h, N-{3β-O-[2,4-di-O-(a-L-rhamnopyranosyl)-β-D-glucopyranosyl]-olean-12-en-28-oyl}-2-furyl-methylamin] reads “lacked potency”.
On to `C[C@@H]1O[C@@H](O[C@H]2[C@H](O[C@H]3CC[C@]4(C)[C@H]5CC=C6[C@@H]7CC(C)(C)CC[C@]7(C(=O)NCc7cccs7)CC[C@@]6(C)[C@]5(C)CC[C@H]4C3(C)C)O[C@H](CO)[C@@H](O[C@@H]3O[C@@H](C)[C@H](O)[C@@H](O)[C@H]3O)[C@@H]2O)[C@H](O)[C@H](O)[C@H]1O` [Compound 12i, N-{3β-O-[2,4-di-O-(a-L-rhamnopyranosyl)-β-D-glucopyranosyl]-olean-12-en-28-oyl}-2-thiophenemethylamine], for which the IC50 in data set [2] was less than 6 µM. Further, in data set [3], the “Inhibition of VSV-G pseudoviral transduction” value is on record as “no effect”.
The corresponding values for `C[C@@H]1O[C@@H](O[C@H]2[C@H](O[C@H]3CC[C@]4(C)[C@H]5CC=C6[C@@H]7CC(C)(C)CC[C@]7(C(=O)NCc7ccccc7F)CC[C@@]6(C)[C@]5(C)CC[C@H]4C3(C)C)O[C@H](CO)[C@@H](O[C@@H]3O[C@@H](C)[C@H](O)[C@@H](O)[C@H]3O)[C@@H]2O)[C@H](O)[C@H](O)[C@H]1O` [Compound 12k, N-{3β-O-[2,4-di-O-(a-L-rhamnopyranosyl)-β-D-glucopyranosyl]-olean-12-en-28-oyl}-2-fluorobenzylamine] are less than 6 µM and “no effect”.
